# From publication PMC12114297 (Molecules, 2025)
# Like-named read-outs stand apart in the source and are kept apart here.
# Tests used:
# S. aureus ATCC 25923 = test: MIC by agar dilution, S. aureus; format: cell-based; details: Staphylococcus aureus, ATCC25923, 0.39–200 μg/mL, read-out: MIC against S. aureus
# [1] = test system: Staphylococcus aureus ATCC 25923; test: Agar well diffusion, S. aureus; format: cell-based; details: for zone of inhibition at 1000 µg/mL: Staphylococcus aureus; for Antibacterial activity in words: agar well diffusion, particularly S. aureus
# Experimental: (§1) The antimicrobial potential of the synthesized coumarin–triazole–isatin hybrids was evaluated by the agar well diffusion method. The activity was tested against a variety of Gram-positive bacteria (Staphylococcus aureus ATCC 25923 and ATCC 902710, Staphylococcus epidermidis ATCC 12228, Streptococcus pyogenes ATCC 19615, Enterococcus faecalis ATCC 51299), Gram-negative bacteria (Escherichia coli ATCC 25922, Haemophilus influenzae ATCC 49766, Pseudomonas aeruginosa ATCC 27853, Salmonella typhi ATCC 14028, Neisseria meningitidis ATCC 13090, Neisseria gonorrhoeae ATCC 43069), and fungi (Candida albicans ATCC 60193 and ATCC 90028, Candida orientalis ATCC 6258). All microbial strains were obtained from Microbiologics (St.Cloud, MN, USA).
# (§2) The test compounds were dissolved in DMSO to obtain stock solutions (1 mg/mL). Each compound (60 µL) was transferred into wells (6 mm in diameter) that were previously perforated into agar plates inoculated with microbial suspensions standardized to 0.5 McFarland for bacteria and 2 McFarland for Candida spp. DMSO was used as a negative control, while commercial antibiotic disks of novobiocin (5 μg), ampicillin (10 μg), and ciprofloxacin (5 μg) served as positive controls. Antimicrobial activity was assessed by measuring the diameter of zones of inhibition (ZOIs) in millimeters. All tests were conducted in triplicate.
# [2] = test system: S. epidermidis ATCC 12228; test: MIC by agar dilution, S. epidermidis; format: cell-based; details: Staphylococcus epidermidis, ATCC12228, 0.39–200 μg/mL, read-out: MIC against S. epidermidis
# [3] = test system: Staphylococcus epidermidis ATCC 12228; test: Agar well diffusion, S. epidermidis; format: cell-based; details: ATCC12228, read-out: Staphylococcus epidermidis ATCC 12228 ZOI, 60 µL of 1 mg/mL per well, ZOI including the well (6 mm), ± SD, n = 3, ciprofloxacin disk 5 μg
# Experimental: as §1, §2
# [4] = biological target: T1, AChE from Electrophorus electricus (eeAChE) (Electrophorus electricus, UniProt O42275); test: biochemical; details: for inhibition at 20 µM: read-out: AChE % of Inhibition (Conc. 20 μM)
# T1 construct: purchased Sigma-Aldrich (St. Louis, MO, USA)
# [5] = biological target: T2, BChE from equine serum (eqBuChE) (Equus caballus, UniProt P81908); test: biochemical; details: for inhibition at 20 µM: read-out: BChE % of Inhibition (Conc. 20 μM), 20 μM; for inhibition at 20 µM / IC50: average ± standard error (n = 3)
# T2 construct: BChE from equine serum (BChE, EC 3.1.1.8); purchased Sigma-Aldrich (St. Louis, MO, USA); host or cells: equine serum
# Experimental: The in vitro cholinesterase inhibitory activity of the synthesized hybrid molecules was evaluated using a modified Ellman’s assay, optimized for 96-well microplate application. AChE from Electrophorus electricus (AChE, EC 3.1.1.7), BChE from equine serum (BChE, EC 3.1.1.8), acetylthiocholine iodide (ATCh), butyrylthiocholine iodide (BTCh), and 5,5′-dithiobis(2-nitrobenzoic acid) were purchased from Sigma-Aldrich (St. Louis, MO, USA) and used without further purification.
# Test compounds were initially dissolved in dimethylsulphoxide (DMSO) to yield 1 mM stock solutions and subsequently diluted with 0.1 M phosphate buffer (pH 8.0) to prepare working solutions.
# For the assay, 20 µL of compound solution was added to 140 µL of 0.1 M phosphate buffer (pH 8.0) in each well, followed by 20 µL of enzyme solution (AChE or BuChE, 100 U/L). After incubation at room temperature for 10 min, the reaction was initiated by adding 10 µL of DTNB (0.01 M) and 10 µL of substrate (ATCh or BTCh, 0.015 M). […] The percentage inhibition of enzyme activity was calculated using the following equation:(1) % Inhibition=Absorbance of control−Apsorbance of sample/Absorbance of control×100 where the absorbance of the control represents the maximum enzyme activity (without inhibition), and the absorbance of the sample corresponds to the enzyme activity in the presence of the tested compound. Appropriate blanks were included to account for background absorbance and to correct for any intrinsic color of the tested compounds.
# All experiments were performed in triplicate.
# BChE = biological target: T3, BChE (Equus caballus, UniProt P81908); test: Type of enzyme inhibition, Lineweaver–Burk plot; format: biochemical, equine
# T3 construct: BChE from equine serum (BChE, EC 3.1.1.8); purchased Sigma-Aldrich (St. Louis, MO, USA); host or cells: equine serum
# Experimental: The concentrations of substrate and inhibitor used in the assay are given in Section 3.3.1.
# The type of enzyme inhibition was assessed using Lineweaver–Burk plots, which represent a linear transformation of the Michaelis–Menten equation. This method enables visual classification of inhibition type by plotting the reciprocal of the initial reaction velocity (1/Vo) against the reciprocal of the substrate concentration (1/[S]).
# The intersection pattern of the fitted lines was used to identify the inhibition mechanism. All tests were replicated three times.
# [6] = ATCC25923, 60 µL of 1 mg/mL per well, ZOI including the well (6 mm), ± SD, n = 3, ciprofloxacin disk 5 μg, read-out: Staphylococcus aureus ATCC 25923 ZOI
# T1 sequence (O42275 24-633): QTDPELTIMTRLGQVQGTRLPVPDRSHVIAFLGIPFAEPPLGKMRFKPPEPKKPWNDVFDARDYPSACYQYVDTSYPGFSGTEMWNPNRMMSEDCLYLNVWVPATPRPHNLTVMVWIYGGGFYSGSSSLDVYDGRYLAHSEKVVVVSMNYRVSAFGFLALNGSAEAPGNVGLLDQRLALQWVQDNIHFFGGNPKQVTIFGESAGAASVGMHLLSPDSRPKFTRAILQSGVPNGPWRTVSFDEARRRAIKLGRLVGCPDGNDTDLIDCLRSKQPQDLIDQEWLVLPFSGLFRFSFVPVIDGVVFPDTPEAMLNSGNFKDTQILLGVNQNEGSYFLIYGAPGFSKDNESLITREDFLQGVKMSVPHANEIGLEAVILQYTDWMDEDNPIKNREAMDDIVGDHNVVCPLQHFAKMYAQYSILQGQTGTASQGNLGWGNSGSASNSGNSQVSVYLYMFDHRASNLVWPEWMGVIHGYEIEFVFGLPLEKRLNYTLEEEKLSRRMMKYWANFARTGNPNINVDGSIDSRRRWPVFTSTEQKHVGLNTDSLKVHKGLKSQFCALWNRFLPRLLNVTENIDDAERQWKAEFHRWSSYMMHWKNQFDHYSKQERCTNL
# T3 sequence (P81908 whole entry): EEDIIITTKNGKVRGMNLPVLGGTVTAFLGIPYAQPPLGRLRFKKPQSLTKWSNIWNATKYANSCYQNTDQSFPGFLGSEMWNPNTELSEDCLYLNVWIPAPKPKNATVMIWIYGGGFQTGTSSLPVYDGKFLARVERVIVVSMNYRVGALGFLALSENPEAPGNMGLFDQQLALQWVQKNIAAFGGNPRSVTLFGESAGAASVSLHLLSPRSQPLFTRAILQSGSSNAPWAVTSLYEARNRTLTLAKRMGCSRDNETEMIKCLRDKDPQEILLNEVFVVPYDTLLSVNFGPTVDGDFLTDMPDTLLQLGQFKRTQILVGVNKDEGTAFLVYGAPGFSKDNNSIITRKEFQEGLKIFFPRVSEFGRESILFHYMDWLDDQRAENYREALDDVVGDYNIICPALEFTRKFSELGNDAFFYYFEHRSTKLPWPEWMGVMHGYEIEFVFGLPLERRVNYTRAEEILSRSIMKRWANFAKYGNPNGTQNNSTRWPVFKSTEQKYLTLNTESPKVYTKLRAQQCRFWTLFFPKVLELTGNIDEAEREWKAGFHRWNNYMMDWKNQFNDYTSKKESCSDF
# T2 sequence (P81908 whole entry): as above
Structure (SMILES),MIC (S. aureus ATCC 25923),"Staphylococcus aureus ATCC 25923 ZOI ([1]; 60 µL of 1 mg/mL per well, ZOI including the well (6 mm), ± SD, n = 3, ciprofloxacin disk 5 μg)","zone of inhibition at 1000 µg/mL [1, 6]",MIC [2],zone of inhibition at 1000 µg/mL [3],inhibition at 20 µM [4],inhibition at 20 µM [5],Antibacterial activity in words [1],IC50 [5],"zone of inhibition at 1000 µg/mL ([1]; ATCC25923, read-out: Staphylococcus aureus ATCC 25923 ZOI, 60 µL of 1 mg/mL per well, ZOI including the well (6 mm), ± SD, n = 3, ciprofloxacin disk 5 μg)",α value (affinity constant) (BChE; from Lineweaver–Burk plot),"Type of inhibition (BChE; substrate 1–8 mM, inhibitor 4, 8, 12 μM)",IC50 ([4]; average ± standard error (n = 3)),Selectivity BChE/AChE ([5]; ratio of AChE and BChE IC50)
"O=C(O)c1cn(C2CC2)c2cc(N3CCNCC3)c(F)cc2c1=O [Ciprofloxacine, ciprofloxacin, reference compound]",0.78 µg/mL,27.00 ± 1.62 mm,27 mm,0.78 µg/mL,5.24 ± 1.16 mm,,,,,,,,,
"O=C1C(=O)N(Cc2cn(CCOc3cc(=O)oc4ccccc34)nn2)c2ccc(Br)cc21 [Compound 6a4, 5-bromo-1-((1-(2-((2-oxo-2H-chromen-4-yl)oxy)ethyl)-1H-1,2,3-triazol-4-yl)methyl)indoline-2,3-dione]",12.5 µg/mL,,12 to 20 mm,,,4.57 ± 0.87%,22.7 ± 3.87%,showed activity,,,,,,
"O=C1C(=O)N(Cc2cn(CCCOc3cc(=O)oc4ccccc34)nn2)c2ccc(Br)cc21 [Compound 6b4, 5-bromo-1-((1-(3-((2-oxo-2H-chromen-4-yl)oxy)propyl)-1H-1,2,3-triazol-4-yl)methyl)indoline-2,3-dione]",6.25 µg/mL,,,25 µg/mL,14 mm,22.9 ± 2.11%,66.2 ± 8.11%,moderate antibacterial effects,13.3 ± 2.19 µM,20 mm,,,,
"O=C1C(=O)N(Cc2cn(CCCCOc3cc(=O)oc4ccccc34)nn2)c2ccccc21 [Compound 6c1, 1-((1-(4-((2-oxo-2H-chromen-4-yl)oxy)butyl)-1H-1,2,3-triazol-4-yl)methyl)indoline-2,3-dione]",,,8.67 ± 1.15 mm,,1.74 ± 0.29 mm,67.1 ± 3.27%,84.5 ± 8.46%,only weak antibacterial activity,1.74 ± 0.29 µM,,greater than 1,mixed-type inhibition,15.3 ± 1.22 µM,8.78
